Laboratory results as given in PMC6145916, “Interaction of mitochondrial fission factor with dynamin related protein 1 governs physiological mitochondrial function in vivo” (Scientific Reports, 2018).
Where no end group is shown, it is not given here.

Assays:
[1] = test system: Huntington's disease patient-derived fibroblasts; experiment: Mitochondrial ROS (MitoSox) in HD patient-derived fibroblasts; format: cell-based, human; conditions: indicated peptide concentration daily for three days, normalized to healthy fibroblast control; 3 independent experiments
Description: (DNM1L) and MFF genes. a.
DNM1L and MFF throughout evolution. NCBI PSI -BLAST was performed for the human […]
corresponding to the human gene. c.
DNM1L and 7/7 isoforms of MFF. d. […]
affect mitochondrial fusion measured by photoconvertible den dra2 protein. Mito -dendra2 […]
The initial image following […]
species production (MitoSox). d.
Data are of 3 independent experiments with the whiskers calculated by the Turkey method. e. […]
production in an Mff -dependent manner. Mitochondrial reactive oxygen species production […]
treatment in each cell line. […]
determined by an unpaired, two -tailed t test). g. […]
control (no peptide treatment). Data are mean ± s.e. from 3 independent experiments.
Human neuroblastoma SH-SY5Y cells purchased from ATCC were cultured in a 50/50 mixture of […]
using SH-SY5Y cells were carried out in the same growth medium with the exception of using […]
Wild-type and MFF knockout mouse embryonic fibroblast (MEF) cells were generously provided by Professor David Chan. […]
an NCBI protein blast of the P259 sequence ([…]) was performed across the human genome database and the top 75 gene query hits were recorded.7 The orthologs of each available gene were obtained from the Ensembl database.8 Of the resulting 75 human gene hits, 37 had […]
calculated as the average MitoSox signal per cell. […]

Mff-Drp1 interaction = experiment: Co-immunoprecipitation of Drp1 and Mff from SH-SY5Y cell lysate; format: cell-based, human; conditions: 1 µM, 1 hour, relative to TAT-carrier control; n = 3, with 2 replicates

## YGRKKRRQRRRGSGIIQLPEIVVV-NH2 (C-terminus assumed) [P259]
[1]
  mitochondrial ROS: further increased mitochondrial ROS
Mff-Drp1 interaction
  Mff-Drp1 interactions (co-IP): significant reduction in Mff-Drp1 interactions
